The text below walks through data of patent US20160089391A1, “Molecular Targets for Cardiovascular Disease” (Temple University-of the Commonwealth System of Higher …, priority 2014, published 2016).

For one experiment, the system named is eNOS-pThr495. The experiment is described as follows: eNOS-pThr495 protein levels in HAECs. The experiment is classed as cell-based, human. To be noted: HAECs with DL-Hcy 500 μmol/L and D-Glu 25 mmol/L 48 hrs; GFX 2 μmol/L 30 min; MDL 20 mmol/L 48 hrs; Adv-dnPKCβ2 200 MOI 72 hrs; siRNA 72 hrs. How it is done:
(FIG. 7A). eNOS protein levels in mouse aorta of Cbs^−/+ mice (Left Panel) and HAECs (Right Panel). (FIG. 7B). eNOS-pThr497/495 protein levels in mouse aorta of Cbs^−/+ mice (Left Panel) and in HAECs (Right Panel). At the age of 8-week, Cbs^−/+ mice were fed with a high methionine diet (HM, methionine: 2% w/w) for 8 weeks, and/or injected with streptozotocin (STZ, i.p., 40 mg/kg) for 5 consecutive days starting from the first day of experiment. Mice fed with a control diet (CT, methionine: 0.37% w/w) and injected with vehicle (50 mmol/L citrate buffer) served as controls. Human aortic endothelial cells (HAECs, passage 8-9) were cultured in EC medium which contains 5 mmol/L D-glucose (D-Glu), treated with DL-homocysteine (DL-Hcy, 500 μmol/L) and/or D-Glu (25 mmol/L). (FIG. 7C). eNOS-pThr495 protein levels in HAECs. HAECs (passage 8-9) were cultured in EC medium which contains 5 mmol/L D-glucose (D-Glu), treated with DL-homocysteine (DL-Hcy, 500 μmol/L) and D-Glu (25 mmol/L for 48 hrs with or without non-specific PKC inhibitor GF109203X (GFX) (2 μmol/L, 30 min.); control adenoviruse (Ad-CT, 200 MOI, 72 hrs), dominant negative PKCβ2 adenovirus (Adv-dnPKCβ2, 200 MOI, 72 hrs); μ-calpain siRNA (μ-calpsiRNA, Santa Cruz #sc-29885, 72 hrs), or MDL ([…], 48 hrs, Sigma #M6690). (FIG. 7D). Transfection effect of Adv-dnPKCβ2in HAECs. Cultured HAECs (passage 8, 80% confluence) were treated with 12.5, 25, 50, 100 and 200 MOI Adv-dnPKCβ2 for 48 hrs. n=3, *p<0.05 vs control; †p<0.05 vs DL-Hcy-treated HAECs; ‡p<0.05 vs D-Glu-treated HAECs; #p<0.05 vs DL-Hcy/D-Glu-treated HAECs. Cbs, cystathionine β-synthase; eNOS, endothelial nitric oxide synthase; eNOS-pThr495/497, phosphorylation of eNOS at threonine 497 (mouse)/495 (human).
Human aortic endothelial cells (HAECs) were cultured in cell culture medium (M199, HyClone) as previously described (Wang et al., 1997, J Biol Chem 272:25380-25385). The HAECs were treated with DL-Hcy (200 or 500 μmol/L) and/or D-glucose (D-Glu, 25 mmol/L) for 24 or 48 hrs in the presence or absence of selected pharmacological inhibitors or siRNA or adenovirus.

A further experiment relates to mouse thoracic aorta. As to the kind of experiment: Endothelium-dependent vascular relaxation to ACh in aortic rings treated ex vivo (multiple-wire myograph). As to conditions: for endothelium-dependent vascular relaxation to ACh: aortic rings of HHcy/HG-Cbs−/+ mice preincubated 1 hr with antioxidant (PEG-SOD 150 U/mL, Tempol 1 mmol/L, apocynin 10 μmol/L); for endothelium-dependent vascular relaxation to ACh / aortic endothelium-dependent vascular relaxation to ACh: p<0.05; for aortic endothelium-dependent vascular relaxation to ACh: aortic rings of HHcy/HG-Cbs−/+ mice preincubated with calpain inhibitor 20 μmol/L for 1 hour.

The subject of the next experiment is calpain. As to the kind of experiment: t-BOC calpain activity assay in intact HAECs. The format is cell-based, human. As to conditions: HAECs treated with DL-Hcy 500 μmol/L and D-Glu 25 mmol/L; PEG-SOD 150 U/mL, 48 hrs. How it is done: (FIG. 5A). In situ .O2^− production in aorta. (FIG. 5B). Nitrotyrosine (3-NT) levels. Aortic paraffin-cross sections (7 μm) from Cbs^−/+ mice were stained with 3-NT antibody and 3,3′-diaminobenzidine (DAB, brown). (FIG. 5C). Urinary 8-isoprostane levels. At the age of 8-week, Cbs^+/+ and Cbs^−/+ mice were fed with a high methionine diet (HM, methionine: 2% w/w) for 8 weeks, and/or injected with streptozotocin (STZ, i.p., 40 mg/kg) for 5 consecutive days starting from the first day of experiment. Mice fed with a control diet (CT, methionine: 0.37% w/w) and injected with vehicle (50 mM citrate buffer) served as controls. Aortic cryo-cross sections (30 μm) from Cbs^−/+ mice were stained with the superoxide marker dihydroethidium (DHE, 3 μmol/L, 30 mins.). Urine was collected from 24 hrs metabolic cage. (FIG. 5D). Endothelium-dependent vascular relaxation in HHcy/HG CBS^−/+ mouse aorta in the presence of antioxidants. Arterial rings were pre-contracted with phenylephrine (1 μmol/L) and examined for relaxation to cumulative additions of ACh in the aorta of STZ-treated Cbs^−/+ mice on HM diet. The arterial rings were preincubated with antioxidants polyethylene glycol superoxide dismutase (PEG-SOD, 150 U/mL, Sigma #S9549), Tempol (1 mmol/L, Sigma #176141), or apocynin (10 μmol/L, Sigma #W508454) for 1 hr. n=3-5. *p<0.05 vs vehicle-treated Cbs^−/+ mice on CT diet; †p<0.05 vs vehicle-treated Cbs^−/+ mice on HM diet; ‡p<0.05 vs STZ-treated Cbs^−/+ mice on CT diet; #p<0.05 vs STZ-treated Cbs^−/+ mice on HM diet. (FIG. 5E). […] Calpain activity was measured by the fluorescent substrate t-BOC-Leu-Met-CMAC (T-BOC, 10 μmol/L, 30 min) Human aortic endothelial cells (HAECs, passage 8-9) were cultured in EC medium which contains 5 mmol/L D-glucose (D-Glu), treated with DL-homocysteine (DL-Hcy, 500 μmol/L) and/or D-Glu (25 mmol/L) with or without […] (150 U/mL) or MDL28170 (MDL, 20 μmol/L) for 48 hrs, or CTsiRNA and μ-calpsiRNA for 72 hrs. […] Transfection effect of μ-calpsiRNA in HAECs was detected by Western blot after transfected with the siRNA for indicated time. […]

In a further experiment the test system is NO production in HAECs. The experiment is described as follows: NO production in HAECs by DAF-FM staining. The format is cell-based, human. To be noted: HAECs; L-NAME 100 μmol/L added in the last hour (negative control). The procedure: (§1) (FIG. 6A). Images of NO. Nitric oxide (NO) production in HAECs was measured by staining intact HAECs with NO marker DAF-FM. N^G-nitro-L-arginine methyl ester (L-NAME, 100 μmol/L, Sigma #N5751) was added in the last hour as a negative control. (FIG. 6B). Quantification of NO. (FIG. 6C). eNOS activity. Human aortic endothelial cells (HAECs) were cultured in EC medium which contains 5 mmol/L D-Glucose (D-Glu), and treated with DL-homocysteine (DL-Hcy, 500 μmol/L) and/or (D-Glu, 25 mmol) without or with MDL28170 (MDL) for 48 hrs, CTsiRNA or μ-calpsiRNA for 72 hrs. L-NAME (100 μmol/L) was added in the last hour. NO was measured by staining intact HAECs with NO marker (DAF-FM, 10 μmol/L, Sigma #D2321, 30 mins.). Endothelial nitric oxide synthase (eNOS) activity was assessed by measuring of ^3H-L-arginine conversion to ^3H-citrulline in intact HAECs. n=3, *p<0.05 vs control; †p<0.05 vs DL-Hcy-treated HAECs; ‡p<0.05 vs D-Glu-treated HAECs; #p<0.05 vs DL-Hcy/D-Glu-treated HAECs. DAF-FM, 4-Amino-5-methylamino-2′,7′-difluorescein; CTsiRNA, control siRNA; HG, hyperglycemia; HHcy, hyperhomocysteinemia; μ-calpsiRNA, μ-calpain siRNA.
(§2) HAECs treated with or without DL-Hcy and/or D-Glu for 48 hrs were stained with 4-Amino-5-Methylamino-2′,7′-Difluorofluorescein (DAF-FM). To explore the role of calpain, especially μ-calpain, the DL-Hcy/D-Glu-treated HAECs were also treated with MDL28170 (MDL, 20 μmol/L) and μ-calpain siRNA, respectively. HAECs treated with L-NAME (100 μmol/L) for 1 hr before DAF-FM staining were used as negative controls. eNOS activity in HAECs was determined by measuring the conversion of ^3H-Arg to ^3H-citrulline in intact cells as previous described (Jiang et al., 2005, Arterioscl Throm Vas 25:2515-2521).

For a further experiment, the target named is T1, eNOS (Homo sapiens, UniProt P29474).
T1 construct: endogenous in cells; host or cells: HAECs (human aortic endothelial cells)
T1 sequence (P29474 2-1203 limits assumed): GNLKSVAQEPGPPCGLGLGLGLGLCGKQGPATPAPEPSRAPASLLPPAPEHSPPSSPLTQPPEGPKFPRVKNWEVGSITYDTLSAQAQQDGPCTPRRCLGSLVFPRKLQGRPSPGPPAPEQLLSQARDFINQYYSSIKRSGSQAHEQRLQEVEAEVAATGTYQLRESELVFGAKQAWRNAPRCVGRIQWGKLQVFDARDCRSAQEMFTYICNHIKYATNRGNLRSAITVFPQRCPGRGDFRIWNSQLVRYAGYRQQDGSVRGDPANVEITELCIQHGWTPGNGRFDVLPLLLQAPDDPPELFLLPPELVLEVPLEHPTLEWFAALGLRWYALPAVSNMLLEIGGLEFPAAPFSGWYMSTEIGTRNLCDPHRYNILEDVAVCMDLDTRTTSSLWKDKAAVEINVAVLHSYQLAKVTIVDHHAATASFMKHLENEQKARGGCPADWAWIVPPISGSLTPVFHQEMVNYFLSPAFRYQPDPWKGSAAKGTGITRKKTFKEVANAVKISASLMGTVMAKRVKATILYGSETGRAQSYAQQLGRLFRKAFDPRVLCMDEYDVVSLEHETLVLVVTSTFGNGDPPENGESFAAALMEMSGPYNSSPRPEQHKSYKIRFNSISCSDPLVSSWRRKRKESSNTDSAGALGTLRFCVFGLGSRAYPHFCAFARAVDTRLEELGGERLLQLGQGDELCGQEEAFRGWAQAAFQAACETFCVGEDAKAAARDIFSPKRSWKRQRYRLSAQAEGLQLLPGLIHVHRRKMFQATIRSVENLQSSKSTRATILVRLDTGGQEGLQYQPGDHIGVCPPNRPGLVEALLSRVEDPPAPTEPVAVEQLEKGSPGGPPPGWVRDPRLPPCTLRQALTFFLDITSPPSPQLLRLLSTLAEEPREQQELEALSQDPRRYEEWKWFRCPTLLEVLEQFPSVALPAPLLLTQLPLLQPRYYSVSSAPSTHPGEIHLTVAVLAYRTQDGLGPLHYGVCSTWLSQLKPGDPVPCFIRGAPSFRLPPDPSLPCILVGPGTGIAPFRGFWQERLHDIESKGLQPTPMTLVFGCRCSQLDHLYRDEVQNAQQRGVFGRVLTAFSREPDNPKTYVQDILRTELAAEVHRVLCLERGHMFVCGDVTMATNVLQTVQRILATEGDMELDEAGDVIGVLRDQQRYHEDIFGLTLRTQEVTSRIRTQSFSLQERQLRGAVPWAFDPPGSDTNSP
As to the kind of experiment: eNOS activity in intact HAECs (3H-Arg to 3H-citrulline conversion). As to conditions: HAECs; L-NAME 100 μmol/L added in the last hour. The experiment is classed as cell-based. How it is done:
as §1, §2

The next experiment concerns aorta of db/db mice. As to conditions: supplementation, via the NO pathway (Seto et al., 2010); cited from earlier work.

Residues, ends and D or L forms follow the SMILES beside them.

For the molecule `CN(C)CCCn1cc(C2=C(c3c[nH]c4ccccc34)C(=O)NC2=O)c2ccccc21` [GFX, GF109203X], the “HHcy/HG-induced eNOS-pThr495” value in the experiment with eNOS-pThr495 is “completely rescued”. For the molecule “polyethylene glycol superoxide dismutase [PEG-SOD]”, the “endothelium-dependent vascular relaxation to ACh” value in the experiment on mouse thoracic aorta is “significantly improved”. The “decrease of HHcy/HG-induced calpain activation” value in the experiment with calpain is listed as 49%.

On to `CSCC[C@@H](C=O)NC(=O)[C@H](CC(C)C)NC(=O)[C@H](CC(C)C)NC(C)=O` [ALLM, N-Acetyl-Leu-Leu-Met-CHO] (Ac-Leu-Leu-Met-aldehyde), for which the “aortic endothelium-dependent vascular relaxation to ACh” value in the experiment with mouse thoracic aorta was “markedly improved”. Consider `COC(=O)[C@@H](N)CCCNC(=N)N[N+](=O)[O-]` [L-NAME, N^G-nitro-L-arginine methyl ester], for which, in the experiment with mouse thoracic aorta (aorta of all groups (Cbs+/+ and Cbs−/+, HHcy and/or HG), L-NAME 100 μmol/L, 30 min), the “vascular relaxation response to ACh” value is “completely abolished”. Besides, in the experiment with NO production in HAECs, the NO generation was determined as 5.7%. Also, the eNOS activity at eNOS is on record as 10%. Regarding `CCCC[C@@H](C=O)NC(=O)[C@H](CC(C)C)NC(=O)OCc1ccccc1` [calpeptin], in the experiment with mouse thoracic aorta, the “aortic endothelium-dependent vascular relaxation to ACh” value is “markedly improved”. `Nc1nc2ncc(CNc3ccc(C(=O)N[C@@H](CCC(=O)O)C(=O)O)cc3)nc2c(=O)[nH]1` [Folic acid]: in the experiment on aorta of db/db mice, the “endothelium-dependent vascular relaxation responses to ACh” value is given as “improved”. `COc1cc(C(C)=O)ccc1O` [apocynin]: in the experiment on mouse thoracic aorta, the “endothelium-dependent vascular relaxation to ACh” value was “significantly improved”. As for `CC1(C)CC(O)CC(C)(C)N1[O]` [Tempol], the “endothelium-dependent vascular relaxation to ACh” value in the experiment on mouse thoracic aorta was “significantly improved”.
